From patent US20230201221A1, “USE OF TERPENOIDS IN THE TREATMENT OR PREVENTION OF FIBROTIC DISEASES” (ARJIL BIOTECH HOLDING COMPANY LIMITED, priority 2020, published 2023)
Where “and” joins values, the source holds several entries; their conditions need not be identical. Equal entries are not always repeated.

Tests used:
Format in all cases: in vivo
[1] = test system: ICR mice; assay: Bleomycin-induced pulmonary fibrosis in mice: lung hydroxyproline content; conditions: extract 1.0 g/kg; AH, BH, DH 50 mg/kg; p<0.001
Method: (§1) Mice were divided into fifth groups with 5 animals per group according to body weight: control group, BLM group, BLM+DEX group (7.5 mg/kg), BLM+ACH dosage group (50 mg/kg), and BLM+ACM dosage group (25 mg/kg), BLM+ACH dosage group (50 mg/kg), and BLM+ACM dosage group (25 mg/kg) BLM+AH dosage group (50 mg/kg), and BLM+AM dosage group (25 mg/kg) BLM+BH dosage group (50 mg/kg), and BLM+BM dosage group (25 mg/kg) BLM+CH dosage group (50 mg/kg), and BLM+CM dosage group (25 mg/kg) BLM+DH dosage group (50 mg/kg), and BLM+DM dosage group (25 mg/kg) BLM+EH dosage group (50 mg/kg), and BLM+EM dosage group (25 mg/kg) BLM. Pulmonary fibrosis (PF) was established in mice via a single intratracheal administration of BLM at 7.5 mg/kg mg/kg body weight. Different doses of samples were intragastrically administered daily for 21 days after BLM injury, and DEX was used as the positive control. Control and model groups received an equal volume of vehicle (0.9% NaCl) using the same schedule and route of administration.
The contents of hydroxyproline were analyzed in lung tissue following the instruction of hydroxyproline assay kit (Biosource International Inc., Sunnyvale, Calif., USA). The pulmonary tissues of mice were ground and homogenized with 1 ml of 6 mol/L […] solution, hydrolyzed at 95° C. for 5 hours, and the pH value was adjusted to 6.0-6.8. According to the instructions, the corresponding reagents were added to the reaction system and mixed thoroughly and then incubated for 15 minutes at 60° C. After cooling, the supernatants were collected after centrifuging at 3500 rpm for 10 minutes. The absorbance value of the supernatant from the samples was measured at 550 nm by a spectrophotometer and calculated for the contents of hydroxyproline on each group.

[2] = test system: MPO; assay: Bleomycin-induced pulmonary fibrosis in mice: lung myeloperoxidase (MPO) assay; conditions: compared with BLM group, p<0.001
Method: as §1
The pulmonary MPO activity was a reliable index for estimating the infiltration of inflammatory cells in lungs. The lung tissues were homogenized and the MPO levels were detected with the kits according to manufacturer's instruction.

[3] = test system: C57BL/6 mice; assay: Cisplatin-induced renal injury in mice: serum CRE and BUN; conditions: extracts at 1000 mg/kg; compared to cisplatin-stimulated group, p<0.001
Method: Determination of biochemical parameters Serum creatinine and serum urea are assessed using colorimetric kits according to manufacturer's instructions. Kits of the former markers are purchased from (HUMAN Diagnostics Worldwide, Magdeburg, Germany) with a chemical analyzer (Roche Diagnostics, Cobas Mira Plus, Rotkreuz, Switzerland).
Seven-to-eight-week-old male C57BL/6 mice are obtained from the BioLASCO Taiwan Co., Ltd. (Taipei, Taiwan). The animals are housed in Plexiglas cages at a constant temperature of 22±1° C. and a relative humidity of 55±5% on a 12 h dark-light cycle for at least 2 weeks before the experiment. Animals are provided food and water ad libitum. All experimental procedures are performed according to the guidelines of the Institutional Animal Ethics Committee, and the protocol is approved by the Committee for the Purpose of Control and Supervision of Experiments on Animals.
Renal fibrosis is induced via multiple injections of low-dose cisplatin. Intraperitoneal injections of cisplatin (5 mg/kg/injection; P4394, Sigma-Aldrich, St Louis, Mo.) are performed at 0, 1, and 3 weeks, for a total of 3 injections. Mice are sacrificed at 6 weeks after the first dose of cisplatin (n=6). To analyze the effects of samples, mice are given daily intraperitoneal injections for 7 days, starting from 4 weeks after first dose of cisplatin, and sacrificed at […] (n=6).

[4] = test system: New Zealand White rabbits; assay: Hypercholesterolemic rabbit model: liver histology scores (steatosis, inflammation, fibrosis); set-up: key to Score of Fibrosis: 0: none; 1: mild perisinusoidal or periportal; 2: perisinusoidal and portal/periportal; 3: bridging fibrosis; 4: cirrhosis; key to Score of Steatosis Location: 0: zone 3, centrilobular; 1: zone 2, mid-zonal; 3: panacinar; conditions: individual liver slides; 0.5% cholesterol chow plus 10 mg/kg Lovastatin, 1% ARH003, 1% ARH004 or 10 mg/kg AR101-DS2; 12-week study
[5] = test system: ICR mice; assay: Bleomycin-induced pulmonary fibrosis in mice: body weight, lung weight, lung index; conditions: for Pulmonary index: (lung weight/body weight)×100
Method: Specific pathogen-free ICR mice (males) (body weights 18-22 g) were purchased from the BioLASCO Taiwan Co., Ltd. (Taipei, Taiwan). The animals were housed in Plexiglas cages at a constant temperature of 22±1° C. and a relative humidity of 55±5% on a 12 h dark-light cycle for at least 2 weeks before the experiment. Animals were provided food and water ad libitum. All experimental procedures were performed according to the guidelines of the Institutional Animal Ethics Committee, and the protocol was approved by the Committee for the Purpose of Control and Supervision of Experiments on Animals.
as §1
Mouse body weights were recorded daily. Mice were sacrificed on the 21th day using excess chloral hydrate hydrochloride anesthesia. Blood was obtained for ELISA analyses, and whole lungs were removed and weighed. The right lungs were fixed in 10% formalin, dehydrated, and embedded in paraffin. The left lungs were used to determine hydroxyproline. The pulmonary coefficient was calculated using the following equation: lung weight/body weight×100%
1. Group I: control; 2. Group II: mice received single intraperitoneal injection of BLM (7.5 mg/kg BW) 3. Group III: single dose (ACH, 0.5 g/kg) 4. Group IV: Single dose (ACM, 1.0 g/kg) 5. […] Group VII: purified AR101-DS2 (50 mg/kg) 8. Group VIII: purified AR101-DS2 (25 mg/kg) 7. Group VII: purified AR101-DS4 (50 mg/kg) 8. Group VIII: purified AR101-DS4 (25 mg/kg) 7. […] Group VII: purified ARH013-RA1 (50 mg/kg) 8. Group VIII: purified ARH013-RA1 (25 mg/kg)

[6] = test system: TNF-α, IL-1β, IL-6 and TGF-β; assay: Bleomycin-induced pulmonary fibrosis in mice: pro-inflammatory cytokines by ELISA; conditions: extract 1.0 g/kg; BH, DH 50 mg/kg; after BLM challenge; p<0.001
Method: as §1, with “administration. […]” for “administration.”
The serum concentration of the pro-inflammatory cytokines (i.e. tumor necrosis factor-α (TNF-α), interleukin-6 (IL-6), and IL-1β) in serum were assessed with relevant enzyme-linked immunosorbent assay (ELISA) kits (Biosource International Inc., Sunnyvale, Calif., USA), based on the manufacturer's instructions.

[7] = 25 mg/kg intragastric daily for 21 days after BLM
[8] = 50 mg/kg intragastric daily for 21 days after BLM

Compound	hydroxyproline (HP) content in lung tissue [1]	lung MPO activity [2]	renal protection: normalization of serum CRE and BUN [3]	Score of Fibrosis [4]	Score of Inflammation [4]	Score of Steatosis Grade [4]	Score of Steatosis Location [4]	Final body mass [5, 7] [g]	Pulmonary mass [5, 7] [g]	Pulmonary index [5, 7]	Final body mass [5, 8] [g]	Pulmonary mass [5, 8] [g]	Pulmonary index [5, 8]	lung index, result in words ([5]; high-dose groups (ACH 1.0 g/kg; BH, DH 50 mg/kg), vs bleomycin-administered animals)	TNF-α, IL-1β, IL-6 and TGF-β production [6]
C=C(CC[C@@H](C)[C@H]1CC[C@H]2C3=C(C(=O)C[C@]12C)[C@@]1(C)CC[C@@H](O)[C@](C)(O)[C@@H]1C[C@@H]3O)[C@@H](C)C(=O)O (racemic) [AR101-DS1, RS-Antcin K]	reduced lung HP	evidently suppressed the MPO activities													
C=C(CC[C@@H](C(=O)O)[C@H]1CC[C@@]2(C)C3=CC[C@H]4C(C)(C)[C@@H](O)CC[C@]4(C)C3=CC[C@]12C)C(C)C [AR101-DS4, Dehydroeburicoic Acid]			significant renal protection effect												
CC[C@H](C)C(=O)O[C@H]1C[C@@H](C)C=C2C=C[C@H](C)[C@H](CC[C@@H]3C[C@@H](O)CC(=O)O3)[C@H]21 [L, Lovastatin, reference compound]				0 (2×) and 1	1 (mild, 2 foci per 200 field) and 0 and 2 (moderate, 2-4 foci per 200 field)	2 (33-66%) (2×) and 0 (low- to medium-power evaluation of parenchymal involvement <5%)	1 (2×) and 0								
Dehydrosulphurenic acid/Sulphurenic acid [AR101-DS2]	reduced lung HP	evidently suppressed the MPO activities		0	1 (mild, 2 foci per 200 field) (2×) and 2 (moderate, 2-4 foci per 200 field)	3 (>66%) (2×) and 1 (5-33%)	2 and 1 and 0	37.91 ± 0.30	0.48 ± 0.01	1.26 ± 0.03	39.7 ± 0.21	0.39 ± 0.01	1.01 ± 0.02	significant decrease in the lung index	improved TNF-α, IL-1β, IL-6 and TGF-β production
